The values below come from ChEMBL document CHEMBL1201862, “PubChem BioAssay data set” (2004).

In one assay the target is T1, Protein skinhead-1 (Caenorhabditis elegans, UniProt P34707).
T1 sequence (P34707 whole entry): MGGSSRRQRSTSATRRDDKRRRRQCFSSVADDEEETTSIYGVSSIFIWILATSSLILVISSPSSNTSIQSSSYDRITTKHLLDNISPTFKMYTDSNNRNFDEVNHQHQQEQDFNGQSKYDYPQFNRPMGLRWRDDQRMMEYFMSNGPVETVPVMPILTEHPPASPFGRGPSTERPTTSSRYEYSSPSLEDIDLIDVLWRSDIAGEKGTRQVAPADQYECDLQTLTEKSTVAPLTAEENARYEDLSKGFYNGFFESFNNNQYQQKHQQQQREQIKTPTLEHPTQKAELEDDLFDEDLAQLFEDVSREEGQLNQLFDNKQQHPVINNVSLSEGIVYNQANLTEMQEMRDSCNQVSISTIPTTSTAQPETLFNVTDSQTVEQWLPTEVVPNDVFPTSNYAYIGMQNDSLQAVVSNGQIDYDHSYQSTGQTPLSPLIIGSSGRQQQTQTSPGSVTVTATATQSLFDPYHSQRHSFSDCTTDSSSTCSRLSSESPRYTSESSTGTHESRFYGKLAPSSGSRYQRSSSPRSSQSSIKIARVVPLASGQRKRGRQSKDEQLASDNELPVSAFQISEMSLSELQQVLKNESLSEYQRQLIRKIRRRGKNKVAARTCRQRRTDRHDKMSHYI
In kind it is functional.

A short description of assay [1]: viability of uninfected HEp-2 cells – cell-based, HTS, cytotoxicity control for RSV inhibitor project, dose response (AID 2410). In kind it is functional. Particulars: human respiratory syncytial virus.
Assay [2] can be described thus: Luminescence Cell-Based Dose Response HTS to Identify Activators of Luciferase Translation or Activity in H4 […] Cells. [Related pubchem assays: 1829 (Project Summary), 1814 (Primary HTS)]. In kind it is functional.
In another assay the test system is H4. The experiment in a line: Luminescence Cell-Based Dose Response HTS to Identify Activators of 5'UTR Stem-Loop Driven Prion Protein mRNA Translation in H4 Neuroglioblastoma Cells. [Related pubchem assays: 1829 (Project Summary), 1814 (Primary HTS)]. In kind it is functional. The settings on record: Homo sapiens.
Assay [3] addresses T2, Rac GTPase-activating protein 1 (Homo sapiens, UniProt Q9H0H5).
T2 sequence (Q9H0H5 whole entry): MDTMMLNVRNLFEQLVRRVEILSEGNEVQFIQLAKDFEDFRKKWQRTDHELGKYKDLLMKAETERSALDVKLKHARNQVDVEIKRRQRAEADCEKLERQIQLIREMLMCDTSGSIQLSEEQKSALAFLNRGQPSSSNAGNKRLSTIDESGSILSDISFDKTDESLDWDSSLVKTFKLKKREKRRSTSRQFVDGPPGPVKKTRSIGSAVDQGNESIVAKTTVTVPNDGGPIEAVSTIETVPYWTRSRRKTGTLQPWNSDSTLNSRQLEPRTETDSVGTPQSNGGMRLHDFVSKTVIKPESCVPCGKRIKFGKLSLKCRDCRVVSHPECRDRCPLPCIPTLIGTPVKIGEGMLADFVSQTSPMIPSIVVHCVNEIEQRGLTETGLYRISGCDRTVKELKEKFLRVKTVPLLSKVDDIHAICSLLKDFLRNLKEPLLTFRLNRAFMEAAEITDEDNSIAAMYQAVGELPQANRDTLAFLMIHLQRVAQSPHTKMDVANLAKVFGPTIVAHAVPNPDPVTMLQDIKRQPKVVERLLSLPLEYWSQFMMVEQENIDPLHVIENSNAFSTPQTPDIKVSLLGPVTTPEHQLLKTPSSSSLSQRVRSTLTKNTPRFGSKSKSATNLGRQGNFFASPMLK
The experiment in a line: blockers of MgcRacGAP-driven Rac1 GTP hydrolysis – biochemical, ADP Hunter fluorescence, primary and confirmatory, confirmation (AID 624330). In kind it is functional.

Assay [4] in a line: Luminescence Cell-Based Dose Retest to Confirm Inhibitors of Cancer Stem Cells. [Related pubchem assays (depositor defined):AID2717, AID2721]. Particulars: Homo sapiens. The format is functional.
The next assay deals with INS1. As to the kind of experiment: INS-1E survival protection against cytokine death – cell-based, luminescence, retest, dose response (AID 449756).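 Also: cell death triggered by IL-1 beta plus TNF-alpha plus IFN-gamma mixture; protective hits raise ATP signal compared with cytokine alone wells.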 The format is functional. The settings on record: Rattus norvegicus.
The target in a further assay is Paired box protein Pax-8 (Homo sapiens, UniProt Q06710). The experiment in a line: PAX8 transcriptional activity inhibition in RMG-I – RMG-I cells, luciferase, cherry-pick, dose response (AID 687027).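 Also: luciferase reporter driven by Pax8 target thyroperoxidase promoter measured by SteadyGlo luminescence.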 In kind it is functional, cell-based.
The target of assay [5] is FAD-linked sulfhydryl oxidase ALR (Homo sapiens, UniProt P55789). As to the kind of experiment: ALR-catalysed DTT oxidation blockers – biochemical, H2O2 detection, luminescence, cherry-pick, dose response (AID 493248).
Assay [6] in a line: Luminescence Cell-Based Dose Confirmation HTS to Identify Activators of 5'UTR Stem-Loop Driven Alpha-Synuclein mRNA Translation in H4 Neuroglioblastoma Cells. [Related pubchem assays: 1829 (Project Summary), 1814 (Primary HTS)]. In kind it is functional.
A short description of assay [7]: cells. The format is functional, cell-based.
Assay [8] is described as follows: cells. In kind it is functional, cell-based. This is another data set of the same source.
Assay [9] in a line: viability of PTEN-deleted HCT116 cells – cell-based, HCT116 PTEN knockout, dose response (AID 1047).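 Also: HCT116 colon tumor cells with PTEN knocked out; cells exposed to compound for 60 hours before readout; potency for loss of cell viability measured by luminescence.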 In kind it is functional.
The nature of assay [10]: viability of HCT116 lacking mutant beta-catenin – cell-based, human colon tumor, dose response (AID 1045).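 Also: HCT116 colon tumor cells with beta catenin knocked out; cells exposed to compound for 60 hours.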 In kind it is functional.

Active and inactive are the calls of the source.

The term IC50 denotes the concentration that inhibits the measured activity by half. The CC50 is the concentration giving 50% cytotoxicity. By EC50 is commonly meant the midpoint of the concentration-response curve. The AC50 is the midpoint of the concentration-response curve, whichever way the signal moves.

FAD-linked sulfhydryl oxidase ALR, sequence (P55789 whole entry): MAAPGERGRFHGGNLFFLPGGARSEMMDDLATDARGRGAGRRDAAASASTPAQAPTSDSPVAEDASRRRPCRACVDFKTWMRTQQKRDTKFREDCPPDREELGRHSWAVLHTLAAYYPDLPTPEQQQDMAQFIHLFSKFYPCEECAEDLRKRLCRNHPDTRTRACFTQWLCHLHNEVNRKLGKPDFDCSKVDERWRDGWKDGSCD
Paired box protein Pax-8, sequence (Q06710 whole entry): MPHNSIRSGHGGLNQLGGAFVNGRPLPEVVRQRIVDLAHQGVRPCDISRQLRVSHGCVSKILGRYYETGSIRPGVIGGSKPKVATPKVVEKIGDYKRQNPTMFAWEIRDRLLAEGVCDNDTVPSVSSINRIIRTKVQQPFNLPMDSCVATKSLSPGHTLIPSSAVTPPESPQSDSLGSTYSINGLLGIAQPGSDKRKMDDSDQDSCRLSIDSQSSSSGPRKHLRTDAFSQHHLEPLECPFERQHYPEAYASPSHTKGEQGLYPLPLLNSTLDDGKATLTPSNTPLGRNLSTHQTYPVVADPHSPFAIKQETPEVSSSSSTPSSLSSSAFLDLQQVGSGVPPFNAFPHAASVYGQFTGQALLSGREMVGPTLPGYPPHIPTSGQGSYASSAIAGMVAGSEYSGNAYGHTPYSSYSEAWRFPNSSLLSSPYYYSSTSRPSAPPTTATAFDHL

As to `CC(C)Oc1cccc(C(=O)Nc2ccc(CN3CCOCC3)cc2)c1`, the IC50 at Protein skinhead-1 is 31.1 µM (active).
`CCCCCn1cnc2sc(-c3ccccc3)cc2c1=O`: the CC50 in [1] is > 50 µM (active). For the same compound, the EC50 in assay [2] was 2.43 µM (active); in the assay with H4, 6.94 µM (active). Besides, on Protein skinhead-1, the IC50 is > 100 µM (inactive).
In the case of `CN(C)c1ccc(NC(=O)COC(=O)CNC(=O)c2cccs2)cc1`, the IC50 in assay [3] is 45.6 µM (active).
For `CC(=O)c1ccc(-n2nncc2-c2ccc([N+](=O)[O-])cc2)cc1`, the IC50 at Protein skinhead-1 is > 100 µM (inactive).
Turning to `Cc1c(C(=O)/C=C/c2cccs2)oc2ccc(F)cc12`, the EC50 in assay [2] was 0.139 µM (active); in the assay on H4 it was 34.1 µM (inconclusive). For the same compound, at Protein skinhead-1, the IC50 was > 100 µM (inactive).
For `CCCCCc1cc(=O)oc2c(C(CCN3CCCCC3)c3ccc4c(c3)OCO4)c(OC)cc(OC)c12` (centres undefined), the AC50 is 6.41 µM (active) in assay [4], 8 µM (active) with INS1 and 13.4 µM (active) at Paired box protein Pax-8.
As to `Nc1ccccc1C#Cc1ccc2[nH]ccc2c1`, the half-maximal activity concentration (AC50) in assay [5] is 14.9 µM (active).
In the case of `C[C@@H]1CN([C@@H](C)CO)S(=O)(=O)c2ccc(C#Cc3ccc(F)cc3)cc2O[C@@H]1CN(C)C(=O)NC1CCCCC1`, the AC50 at Paired box protein Pax-8 is 8.43 µM (active).
For the compound `Cc1ccc(Cn2nc(-c3ccccc3)nc2-c2ccccc2)cc1`, the EC50 is 5.09 µM (active) in assay [6], 20 µM (active) in assay [2] and 17.9 µM (active) in the assay with H4.
The like results for `COc1ccc(/C=C2\SC(=O)N(CCNC(=O)C3CCN(S(=O)(=O)c4cccs4)CC3)C2=O)cc1` were, in that order, 10.2 µM (active), 36.7 µM (active) and 19.1 µM (active).
`CC(/C=N/n1c(S)nnc1-c1ccccn1)=C\c1ccccc1`: the AC50 in [5] is 5.86 µM (active).
For `O=C1/C(=C/c2nc3ccccc3[nH]2)SC(=S)N1c1ccccc1`, the EC50 in “cells [7]” and in “cells [8]” was > 350 µM (not active) each time.
Regarding `C#CCN1C(=O)S/C(=C/C=C/c2ccc(N(C)C)cc2)C1=O`, at Protein skinhead-1, the IC50 is > 100 µM (inactive).
On to `N#Cc1ccc(CN2CCN(C(=O)c3cc(C4CC4)nn3-c3ccccc3)CC2)cc1`, for which, at Protein skinhead-1, the half-inhibitory concentration (IC50) was 37.5 µM (active).
Take `Cc1cccc(-n2cnc3cc(C(=O)N4CCCCC4)ccc32)c1`: the EC50 in [6] was 17.9 µM (active); in assay [2], 7.6 µM (active); in the assay on H4, 13.9 µM (active).
`CC(=O)c1ccc(S(=O)(=O)Nc2cccc(S(=O)(=O)NC3=NCCC3)c2)cc1`: the AC50 in assay [5] is > 100 µM (inactive).
With `COC(=O)c1ccc2nc(-c3ccc(C)cc3)c(Cc3cccc(F)c3)n2c1`, the IC50 at Protein skinhead-1 is > 100 µM (inactive).
Regarding `O=C1N=C(N2CCCCC2)SC1=C1CCCCC1`, the 50% effective concentration (EC50) in assay [6] is 13.8 µM (active); in assay [2] it was 5.25 µM (active); in the assay with H4 it was 21.5 µM (active).
Regarding `COc1ccc(NC2CCCN(C(=O)C3=NNC(=O)CC3)C2)cc1` (centres undefined), the IC50 in assay [3] is 120 µM (active).
Take `CCCCN1C[C@H](c2ccc(Br)cc2)[C@@H](CC(=O)Nc2ccc(Br)cc2)C1=O`: at Protein skinhead-1, the IC50 was > 100 µM (inactive).
On to `N#C/C(=C\C1CC=CCC1)c1nc2ccccc2[nH]1` (centres undefined), for which the CC50 in [1] was 23.4 µM (active). The EC50 in assay [6] was 21.9 µM (active); in assay [2], 26.3 µM (active); in the assay on H4 it was 23.7 µM (active).
Take `O=C(/C=C/c1ccco1)Nc1nc(-c2ccccc2)cs1`: at Protein skinhead-1, the IC50 is 68.6 µM (inactive).
As for `O=C(/C=C/c1cccs1)Nc1ccc(N2CCOCC2)c(S(=O)(=O)Nc2ccccc2Cl)c1`, the figures for the half-maximal effective concentration (EC50) (in [6]; in [2]; in the assay with H4) were 12 µM (active), 46.3 µM (active) and 22.2 µM (active), respectively.
The like results for `Cc1cc(C(c2nnnn2Cc2ccccc2)N2CCOCC2)c(C)n1-c1ccc2c(c1)OCO2` (centres undefined) were, in that order, 91.8 µM (active), > 120 µM (not active) and 35.6 µM (active).
As to `COCCCNC(=O)/C(C#N)=C/c1c(N2CCN(c3ccc(OC)cc3)CC2)nc2c(C)cccn2c1=O`, the IC50 in [3] was 114 µM (active).
For `C[C@@H]1CN([C@H](C)CO)C(=O)c2cc(NS(=O)(=O)c3ccc(F)cc3)ccc2O[C@@H](C)CCCCO[C@H]1CN(C)Cc1ccccc1`, the AC50 at Paired box protein Pax-8 is 17.2 µM (active).
As to `CN(CCOC(=O)CN1C(=O)c2ccccc2C1=O)C1=NS(=O)(=O)c2ccccc21`, the EC50 in assay [6] is > 120 µM (not active); in [2], 46.8 µM (active); in the assay with H4, > 120 µM (not active).
For the compound `O=[N+]([O-])c1ccc(COc2ccc(CN3CCCCC3)cc2)cc1`, on Protein skinhead-1, the 50% inhibitory concentration (IC50) is 3.46 µM (active).
As for `Cc1cn([C@H]2C[C@H](O)[C@@H](CNCC3=Cc4cc(O)ccc4OC3)O2)c(=O)[nH]c1=O`, the IC50 in assay [3] was 95.9 µM (active).
Consider `O=C(c1cnn2c1NC(c1ccco1)CC2C(F)(F)F)N1CCN(c2cccc(Cl)c2)CC1` (centres undefined), for which the EC50 (in assay [6]; in [2]; in the assay with H4) was > 120 µM (not active) in each case.
`O=C1/C(=C/c2ccccn2)SC(=S)N1CCc1ccccc1`: the EC50 was 8.16 µM (active) in [6], 10.9 µM (active) in assay [2] and 19.4 µM (active) with H4.
Regarding `COc1cccc(S(=O)(=O)N2CC[C@@H]3[C@H](CO)Nc4ccc(C5=CCCCC5)cc4[C@@H]32)c1`, the AC50 at Paired box protein Pax-8 is 10 µM (active).
With `COc1ccccc1C(=O)N1CCN(Cc2cccnc2)CC1`, the IC50 in assay [3] is 101 µM (active).
Regarding `O=C(NC(c1ccc(Cl)cc1)c1c(O)ccc2ccccc12)c1ccccc1` (centres undefined), the EC50 is 7.75 µM (active) in assay [9] and 8.69 µM (active) in assay [10]. Besides, the concentration at half-maximal activity (AC50) in assay [4] is 1.23 µM (active).
Take `COc1ccc(NC2CCCN(C(=O)CCN3CCCO3)C2)cc1` (centres undefined): the IC50 in assay [3] is 128 µM (active).
Turning to `Fc1ccc(CN2CCN(C(c3ccccc3)c3ccccc3)CC2)cc1`, the IC50 in [3] is 236 µM (active).
For the compound `c1ccc(-c2ccc(OCCOCCn3cncn3)cc2)cc1`, the EC50 in [6] was 30.9 µM (active); in assay [2], 45.9 µM (active); in the assay with H4, 17.2 µM (inconclusive).
`CCn1cc(Br)c(-c2nc3ccccc3c(=O)n2N)n1`: the EC50 is 102 µM (active) in [6], 8.16 µM (active) in assay [2] and > 120 µM (not active) in the assay with H4.
`CCN1CCN(CC(=O)Nc2sc3c(c2C#N)CCC(C)C3)CC1` (centres undefined): the EC50 in assay [9] is 15.8 µM (active); in [10], 17.9 µM (active).
Regarding `CC(=O)Nc1ccc2c(c1Br)Cc1ccccc1-2`, the IC50 at Protein skinhead-1 was > 100 µM (inactive).
Turning to `CCn1c(CNc2ccc(OC)cc2)nnc1SCC(=O)c1ccc(OC)cc1`, the concentration giving a half-maximal response (EC50) in [10] is 470 µM (active).
Regarding `O=C(Nc1ccccc1NC(=O)NC1CCCCC1)NC1CCCCC1`, the EC50 is 15.1 µM (active) in [9] and 17.8 µM (active) in assay [10].
